Entries after “also recorded” stand apart in the source; their conditions may differ. Like-named read-outs stand apart in the source and are kept apart here.
Key:
borage seeds (M1) = assay type: in vivo, Borago officinalis
Protocol: Approximately 164000 borage seeds were divided into 6 groups for mutagenesis. The seeds (M1) were soaked in 0.5%, 1.0% and 1.5% (v/v) of EMS solutions for 8 hours and 16 hours respectively, and then rinsed with tap water for 4 hours. After washing, the seeds are dried with paper towel. The mutagenized seeds were sowed in 48 plots in a research farm in Saskatoon, SK, in June, 2012. Each plot was 7.5×1.5 m in size and sowed 86 g of mutagenized seeds. M1 borage plants were grown to maturity and M2 seeds were harvested by groups according to the EMS treatments.

[1] = test system: M4 homozygous imidazolinone-resistant borage (AHAS1 mutant); assay type: in vivo, Borago officinalis; details: AHAS1 mutant line, 2X of the recommended rate, 21 days after spraying
Protocol: Adjuvant reagent for each herbicide was added into spray solution accordingly. Sprayed M4 borage plants were visually evaluated at 21 days after spraying by comparing with wild-type controls.

[2] = test system: AHAS enzyme of homozygous resistant borage (AHAS1 mutant); test: In vitro AHAS activity assay, resistant (AHAS1 mutant) borage leaf protein extract; assay type: biochemical, Borago officinalis; details: across all imazamox concentrations (0-625 μM)
Source text: (§1) The herbicide imazamox is an inhibitor of the AHAS enzyme. […] It has been shown from the above Examples that the AHAS1 mutant borage line can tolerate two times the recommended dosage of “Solo” herbicide and the tolerance is caused by the single nucleotide mutation of the AHAS1 gene. As such, the AHAS activity level of the mutant plants would provide further evidence to support the conclusion. AHAS enzyme activity is generally measured using a discontinuous colorimetric assay based on the method developed by Singh et al. (Singh B K, et al. Assay of acetohydroxyacid synthase. Analytical Biochemistry 171 (1988) 173-179). In this method, the crude protein is incubated with the substrate for a fixed time to generate intermediate acetolactate that is then converted to acetoin under decarboxylation. Finally, the reaction of acetoin with creatine and α-naphthol forms a pink-colored product which can be measured at 520 nm wavelength in a spectrometer. As a result, the AHAS activity level can be estimated based on the color density. See Duggleby R G and Pang S S. (2000) supra. […]
(§2) The gummy protein layer was re-dissolved in 1.4 mL incubation buffer containing 50 mM K2HPO4 buffer (pH 7.0), 100 mM sodium pyruvate, 10 mM MgCl2, 1 mM TPP and 1 μM FAD. The amount of protein in each sample was determined immediately by the Bio-Rad protein assay using a dye reagent (#500-0006). […]

[3] = test system: AHAS enzyme of susceptible borage (wild-type); test: In vitro AHAS activity assay, susceptible (wild-type) borage leaf protein extract; assay type: biochemical, Borago officinalis; details: 625 μM imazamox
Source text: as §1, §2

With CCOS(C)(=O)=O [EMS, ethyl methanesulfonate] the “Germination Rate (%)” value (borage seeds (M1); 0.5% EMS 8 hrs) was 19%, the “Germination Rate (%)” value (borage seeds (M1); 0.5% EMS 16 hrs) was 8% and the “Germination Rate (%)” value (borage seeds (M1); 1.0% EMS 8 hrs) was 15%. The “Germination Rate (%)” value (borage seeds (M1); 1.0% EMS 16 hrs) was 9%, the “Germination Rate (%)” value (borage seeds (M1); 1.5% EMS 8 hrs) was 11% and the “Germination Rate (%)” value (borage seeds (M1); 1.5% EMS 16 hrs) was 8%. For the same molecule, the germination rate (borage seeds (M1); all EMS-treated M1 seeds sown in the field) was “about 12%” and the “sterility of M1” value (borage seeds (M1); in vivo) was “pronounced sterility”.

COc1nn(C(=O)[N-]S(=O)(=O)c2ccccc2OC(F)(F)F)c(=O)n1C.[Na+] [flucarbazone sodium] was tested, and the “level of resistance / tolerance (in words)” value [1] was “some tolerance”.

For COCc1cnc(C2=NC(C)(C(C)C)C(=O)N2)c(C(=O)O)c1 (stereo not shown) [imazamox, 2-[4,5-dihydro-4-methyl-4-(1-methylethyl)-5-oxo-1H-imidazol-2-yl]-5-(methoxymethl)-3-pyridinecarboxylic acid.], the “AHAS activity of mutant compared with wild type” value [2] was “significantly higher AHAS activity than the wild type borage”, the AHAS activity retained [3] was “zero and completely inhibited” and the “level of resistance / tolerance (in words)” value [1] was “strong resistance; also recorded: equally strong resistant level”.

CCc1cnc(C2=NC(C)(C(C)C)C(=O)N2)c(C(=O)O)c1 (stereo not shown) [imazethapyr, 2-[4.5-dihydro-4-methyl-4-(1-methylethyl)-5-oxo-1H-imidazol-2-yl]-5-ethyl-3-pyridinecarboxylic acid] was tested, and the “level of resistance / tolerance (in words)” value [1] was “strong resistance; also recorded: equally strong resistant level”.
